Experiment [1] deals with chimeric replicon with genotype 4a NS5B. Description: microbe, parasite or virus in culture. The class given is cell-based, HCV genotype 4a. The note with it: Hepatitis C virus, read-out: 4a chimera 5% FBS EC50.
Experiment [2] relates to chimeric replicon with genotype 2b NS5B. Description: microbe, parasite or virus in culture. The class given is cell-based, HCV genotype 2b. Particulars: Hepatitis C virus, read-out: 2b chimera 5% FBS EC50.
Experiment [3] relates to HCV NS5B polymerase 1a-H77-C316Y. In words: biochemical. Also noted: species or system HCV genotype 1a. The note with it: ratio of enzyme IC50s, 1a H77-C316Y / 1a H77. The method, boiled down: (§1)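 Recombinant NS5B (residues 1–570, His-tagged, E. coli-expressed) copied 5 nM of a 2.1 kb HCV 1b negative-strand 3′-end RNA template with 20 μM CTP, 20 μM ATP and 0.284 μM [3H]UTP for 3 h at 30 °C. Spermine-precipitated RNA was filter-captured and counted, and IC50 was fitted by nonlinear regression.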

The target of experiment [4] is T1, HCV NS5B polymerase 1a-H77 (Hepatitis C virus genotype 1a, UniProt P27958).
T1 construct: six-histidine tag; made in house; host or cells: E. coli
T1 sequence (P27958 2421-2990): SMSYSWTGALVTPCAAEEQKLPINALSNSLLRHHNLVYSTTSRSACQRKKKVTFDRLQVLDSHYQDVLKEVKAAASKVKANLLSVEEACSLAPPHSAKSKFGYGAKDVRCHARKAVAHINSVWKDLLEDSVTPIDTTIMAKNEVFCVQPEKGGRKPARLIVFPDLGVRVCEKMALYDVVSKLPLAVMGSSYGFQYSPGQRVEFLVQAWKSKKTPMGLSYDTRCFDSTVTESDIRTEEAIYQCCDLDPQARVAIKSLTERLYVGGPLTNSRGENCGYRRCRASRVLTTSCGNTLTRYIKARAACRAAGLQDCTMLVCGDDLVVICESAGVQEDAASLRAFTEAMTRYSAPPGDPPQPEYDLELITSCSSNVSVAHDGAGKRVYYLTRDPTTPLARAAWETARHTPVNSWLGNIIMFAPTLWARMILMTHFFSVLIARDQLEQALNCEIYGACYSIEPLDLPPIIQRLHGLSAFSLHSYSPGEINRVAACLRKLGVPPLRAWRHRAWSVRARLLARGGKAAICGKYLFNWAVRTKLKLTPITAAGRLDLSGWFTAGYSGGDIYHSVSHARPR
In words: biochemical. Set-up: species or system HCV genotype 1a. The note with it: enzyme, strain 1a H77; read-out: HCV Polymerase Strain 1a H77 IC50. The method, boiled down:
as §1

Experiment [5] addresses T2, HCV NS5B polymerase 1a-H77-C316Y (Hepatitis C virus genotype 1a, UniProt P27958, C2736Y).
T2 construct: six-histidine tag; made in house; host or cells: E. coli
Description: biochemical. Set-up: species or system HCV genotype 1a. The procedure, abridged: as §1

Experiment [6] relates to chimeric replicon with 2a-J6CF-derived NS5B. In words: microbe, parasite or virus in culture. The class given is cell-based, HCV genotype 2a. The note with it: Hepatitis C virus, read-out: 2a chimera 5% FBS EC50.
The test system of experiment [7] is chimeric replicon with genotype 3a NS5B. In words: microbe, parasite or virus in culture. Format: cell-based, HCV genotype 3a. Particulars: Hepatitis C virus, read-out: 3a chimera 5% FBS EC50.
Experiment [8] addresses T3, HCV NS5B polymerase 1b BK strain (Hepatitis C virus genotype 1b, UniProt P26663).
T3 construct: six-histidine tag; made in house; host or cells: E. coli
In words: HCV NS5B polymerase enzymatic inhibition assay, strain 1b BK. Format: biochemical. The note with it: enzyme, strain 1b BK; read-out: HCV Polymerase Strain 1b BK IC50. The procedure, abridged: as §1

Experiment [9] relates to HCV 1b-BB7 subgenomic replicon. Description: microbe, parasite or virus in culture. Format: cell-based, HCV genotype 1b. The note with it: Hepatitis C virus, stable replicon. (In general: A replicon is a self-replicating genome or part of one, used to study replication in cells.)
The test system of experiment [10] is HCV 1a-H77 subgenomic replicon. Description: microbe, parasite or virus in culture. Format: cell-based, HCV genotype 1a. Particulars: Hepatitis C virus, stable replicon.
Experiment [11] deals with HCV 1a-H77 transient subgenomic replicon in Huh-7 derived cell line. Description: microbe, parasite or virus in culture. Format: cell-based, HCV genotype 1a. Particulars: Hepatitis C virus, Huh-7; transient replicon, 5% FBS; read-out: Transient Replicon 1a H77 5% FBS EC50. The method, boiled down:
(§2)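 Transient format: T7-transcribed replicon RNA lacking Neo, electroporated into Huh-7-derived cells (5×10^3/well), input RNA checked by luciferase at 4 h. Three-fold compound dilution series, 0.5% DMSO, 4 days at 37° C; EC50 from luciferase signal in lysed cells.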

Experiment [12] concerns HCV 1a-H77-C316Y transient subgenomic replicon in Huh-7 derived cell line. Description: microbe, parasite or virus in culture. Format: cell-based, HCV genotype 1a. Particulars: for EC50: Hepatitis C virus, Huh-7, read-out: Transient Replicon 1a H77-C316Y 5% FBS EC50; for Transient Replicon Fold Resistance C316Y/1a: ratio of transient replicon EC50s, C316Y / 1a H77. The procedure, abridged:
as §2

The mark [13] stands for this setting: strain 1b BB7, 5% FBS + 40% human plasma, read-out: 1b BB7 5% FBS + 40% Human Plasma EC50.
[14] abbreviates: strain 1b BB7, 5% FBS, no human plasma, read-out: 1b BB7 5% FBS EC50.
Setting [15] is: strain 1b BB7, 5% FBS, read-out: 1b BB7 5% FBS EC50.
The mark [16] stands for this setting: 5% FBS, absence of human plasma, read-out: Stable Replicon 1a H77 5% FBS EC50.
Setting [17] is: strain 1a H77, 5% FBS + 40% human plasma, read-out: 1a H77 5% FBS + 40% Human Plasma EC50.
Setting [18] is: strain 1a H77, 5% FBS, no human plasma, read-out: 1a H77 5% FBS EC50.
[19] abbreviates: strain 1a H77, 5% FBS, read-out: 1a H77 5% FBS EC50.

The results in this text go back to patent US20160355530A1, “HEPATITIS C INHIBITORS AND USES THEREOF” (AbbVie Inc., priority 2010, published 2016).

Read-outs that look alike come from different tables or passages of the source.

T2 sequence (P27958 2421-2990 C2736Y): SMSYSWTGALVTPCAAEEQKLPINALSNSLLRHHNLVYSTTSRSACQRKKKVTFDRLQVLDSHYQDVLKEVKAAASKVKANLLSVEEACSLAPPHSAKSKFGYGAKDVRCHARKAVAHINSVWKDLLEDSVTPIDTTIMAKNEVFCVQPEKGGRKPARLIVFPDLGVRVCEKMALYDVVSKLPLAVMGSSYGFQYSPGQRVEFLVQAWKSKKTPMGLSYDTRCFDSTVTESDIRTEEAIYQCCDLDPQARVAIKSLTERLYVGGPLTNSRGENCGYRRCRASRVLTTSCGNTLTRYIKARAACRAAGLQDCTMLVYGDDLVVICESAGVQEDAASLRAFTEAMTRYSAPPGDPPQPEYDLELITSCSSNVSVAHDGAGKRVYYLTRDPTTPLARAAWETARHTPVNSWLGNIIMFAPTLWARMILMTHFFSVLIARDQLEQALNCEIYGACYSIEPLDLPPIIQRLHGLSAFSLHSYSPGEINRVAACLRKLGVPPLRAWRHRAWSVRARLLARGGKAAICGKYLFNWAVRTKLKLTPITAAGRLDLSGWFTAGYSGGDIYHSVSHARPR
T3 sequence (P26663 2420-2989): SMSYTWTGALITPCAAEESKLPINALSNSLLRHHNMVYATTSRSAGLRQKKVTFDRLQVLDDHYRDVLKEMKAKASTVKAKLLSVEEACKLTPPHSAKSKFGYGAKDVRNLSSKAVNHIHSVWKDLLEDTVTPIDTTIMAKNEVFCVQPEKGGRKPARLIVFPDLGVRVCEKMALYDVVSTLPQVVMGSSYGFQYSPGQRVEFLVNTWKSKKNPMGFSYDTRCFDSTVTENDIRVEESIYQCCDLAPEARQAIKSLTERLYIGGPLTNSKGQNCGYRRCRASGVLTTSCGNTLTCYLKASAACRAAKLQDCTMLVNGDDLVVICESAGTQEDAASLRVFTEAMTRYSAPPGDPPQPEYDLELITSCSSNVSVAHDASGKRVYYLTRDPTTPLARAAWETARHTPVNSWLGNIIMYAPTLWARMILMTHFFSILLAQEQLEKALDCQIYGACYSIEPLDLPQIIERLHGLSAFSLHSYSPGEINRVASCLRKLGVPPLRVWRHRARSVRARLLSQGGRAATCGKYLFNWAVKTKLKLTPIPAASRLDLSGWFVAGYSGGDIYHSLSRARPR

As a reminder, the EC50 is the concentration at which the effect is half-maximal. Broadly, the IC50 is the point on the concentration scale where inhibition reaches its midpoint. For `CS(=O)(=O)N(CCCCCO)c1cc2oc(-c3ccc(F)cc3)c(-c3ncc[nH]3)c2cc1C1CC1` [Example 88, N-[5-cyclopropyl-2-(4-fluorophenyl)-3-(1H-imidazol-2-yl)-1-benzofuran-6-yl]-N-(5-hydroxypentyl)methanesulfonamide], the EC50 stood at 33.9 nM in experiment [1]; 24.5 nM in [2]; 25.3 nM in experiment [6]; 3.2 nM in [7]; 108 nM in experiment [9] (setting [13]); 4.9 nM in [9] (setting [14]). Besides, the concentration giving a half-maximal response (EC50) in experiment [9] (setting [15]) stood at 4.9 nM; in [10] (setting [16]), 4.1 nM; in experiment [10] (setting [17]), 119 nM; in experiment [10] (setting [18]) it was 4.1 nM; in experiment [10] (setting [19]), 4.1 nM; in [11] it was 1.2 nM. For the same compound, the EC50 in experiment [12] was 38.2 nM. Moreover, the “C316Y/1a Fold Resistance” value in experiment [3] is 12 fold. Further, the IC50 in experiment [4] was found to be 4 nM; in [5], 46 nM; in experiment [8], 9 nM. In experiment [12], the “Transient Replicon Fold Resistance C316Y/1a” value was 32 fold.
As for `CS(=O)(=O)N(CCCS(=O)(=O)c1ccccc1)c1cc2oc(-c3ccc(F)cc3)c(-c3ncc[nH]3)c2cc1C1CC1` [Example 90, N-[5-cyclopropyl-2-(4-fluorophenyl)-3-(1H-imidazol-2-yl)-1-benzofuran-6-yl]-N-[3-(phenylsulfonyl)propyl]methanesulfonamide], the 50% effective concentration (EC50) in [1] turned out to be 27.5 nM; in experiment [2], 68 nM; in [6], 47.5 nM; in experiment [7], 12.8 nM; in experiment [9] (setting [13]), 48 nM; in [9] (setting [14]) it was 6 nM. The EC50 turned out to be 6 nM in [9] (setting [15]); 10.2 nM in [10] (setting [16]); 93 nM in experiment [10] (setting [17]); 10.2 nM in [10] (setting [18]); 10.2 nM in [10] (setting [19]); 2.7 nM in [11]. Moreover, the 50% effective concentration (EC50) in experiment [12] came to 65.8 nM. Further, the “C316Y/1a Fold Resistance” value in experiment [3] turned out to be 12 fold. Also, the IC50 in experiment [4] is 3.5 nM; in [5], 42 nM; in experiment [8], 10 nM. Also, the “Transient Replicon Fold Resistance C316Y/1a” value in experiment [12] came out at 24 fold.
On to `CS(=O)(=O)N(CCCCC(N)=O)c1cc2oc(-c3ccc(F)cc3)c(-c3ncc[nH]3)c2cc1C1CC1` [Example 91, 5-{[5-cyclopropyl-2-(4-fluorophenyl)-3-(1H-imidazol-2-yl)-1-benzofuran-6-yl](methylsulfonyl)amino}pentanamide], for which the EC50 turned out to be 88.8 nM in experiment [1]; 99.4 nM in experiment [2]; 85.8 nM in experiment [6]; 8 nM in experiment [7]; 34 nM in experiment [9] (setting [13]); 4.9 nM in [9] (setting [14]). The EC50 was determined as 4.9 nM in experiment [9] (setting [15]); 6.3 nM in experiment [10] (setting [16]); 32 nM in experiment [10] (setting [17]); 6.3 nM in experiment [10] (setting [18]); 6.34 nM in experiment [10] (setting [19]); 5.6 nM in experiment [11]. Further, the EC50 in experiment [12] was determined as 121 nM. Moreover, the “C316Y/1a Fold Resistance” value in experiment [3] stood at 15 fold. Also, the IC50 worked out at 5.3 nM in experiment [4], 80 nM in [5] and 26 nM in experiment [8]. In addition, the “Transient Replicon Fold Resistance C316Y/1a” value in [12] was 22 fold.
In the case of `CS(=O)(=O)N(CCCCC(=O)O)c1cc2oc(-c3ccc(F)cc3)c(-c3ncc[nH]3)c2cc1C1CC1` [Example 92, 5-{[5-cyclopropyl-2-(4-fluorophenyl)-3-(1H-imidazol-2-yl)-1-benzofuran-6-yl](methylsulfonyl)amino}pentanoic acid], the EC50 in [1] came out at 283 nM; in [2], 352 nM; in experiment [6] it was 409 nM; in [7], 43 nM; in experiment [9] (setting [13]), 142 nM; in experiment [9] (setting [14]), 25.9 nM. In addition, the EC50 in experiment [9] (setting [15]) was determined as 25.9 nM; in [10] (setting [16]), 21.4 nM; in experiment [10] (setting [17]), 175 nM; in [10] (setting [18]), 21.4 nM; in experiment [10] (setting [19]), 21.4 nM; in [11] it was 19.4 nM. The concentration giving a half-maximal response (EC50) in experiment [12] came out at 480 nM. Besides, the “C316Y/1a Fold Resistance” value in [3] is 9 fold. The values for the IC50 in [4], in experiment [5] and in experiment [8] were 4.9 nM, 43 nM and 6 nM, respectively. In experiment [12], the “Transient Replicon Fold Resistance C316Y/1a” value is 25 fold.
`CCS(=O)(=O)CCN(c1cc2oc(-c3ccc(F)cc3)c(-c3ncc[nH]3)c2cc1C1CC1)S(C)(=O)=O` [Example 96, N-[5-cyclopropyl-2-(4-fluorophenyl)-3-(1H-imidazol-2-yl)-1-benzofuran-6-yl]-N-[2-(ethylsulfonyl)ethyl]methanesulfonamide]: the EC50 in [1] was 41.9 nM; in experiment [2], 126 nM; in [6], 43.7 nM; in experiment [7], 5.9 nM; in experiment [9] (setting [13]), 37 nM; in experiment [9] (setting [14]), 4 nM. The EC50 in [9] (setting [15]) worked out at 4 nM; in experiment [10] (setting [16]) it was 6.3 nM; in experiment [10] (setting [17]) it was 58 nM; in [10] (setting [18]) it was 6.2 nM; in experiment [10] (setting [19]), 6.3 nM; in experiment [11], 1.1 nM. The EC50 in experiment [12] amounted to 80.6 nM. Moreover, the “C316Y/1a Fold Resistance” value in experiment [3] was 6 fold. Besides, the values for the IC50 in [4], in experiment [5] and in experiment [8] were 8.9 nM, 58 nM and 34 nM, respectively. In [12], the “Transient Replicon Fold Resistance C316Y/1a” value is recorded as 73 fold.
On to `CC(C)(O)CCCN(c1cc2oc(-c3ccc(F)cc3)c(-c3ncc[nH]3)c2cc1C1CC1)S(C)(=O)=O` [Example 99, N-[5-cyclopropyl-2-(4-fluorophenyl)-3-(1H-imidazol-2-yl)-1-benzofuran-6-yl]-N-(4-hydroxy-4-methylpentyl)methanesulfonamide], for which the EC50 was found to be 31.4 nM in [1]; 17.3 nM in [2]; 29.6 nM in experiment [6]; 3.8 nM in experiment [7]; 105 nM in experiment [9] (setting [13]); 5.4 nM in experiment [9] (setting [14]). For the same compound, the EC50 in experiment [9] (setting [15]) came out at 5.4 nM; in experiment [10] (setting [16]), 7.7 nM; in [10] (setting [17]), 126 nM; in experiment [10] (setting [18]), 7.7 nM; in experiment [10] (setting [19]), 7.7 nM; in [11], 7.6 nM. For the same compound, in experiment [12], the EC50 is 85.4 nM. For the same compound, in [3], the “C316Y/1a Fold Resistance” value came out at 13 fold. In addition, the IC50 in experiment [4] is 4.5 nM; in experiment [5] it was 58 nM; in experiment [8] it was 11 nM. In experiment [12], the “Transient Replicon Fold Resistance C316Y/1a” value amounted to 11 fold.
Consider `CC(O)CCCN(c1cc2oc(-c3ccc(F)cc3)c(-c3ncc[nH]3)c2cc1C1CC1)S(C)(=O)=O` (stereo not drawn) [Example 100, N-[5-cyclopropyl-2-(4-fluorophenyl)-3-(1H-imidazol-2-yl)-1-benzofuran-6-yl]-N-(4-hydroxypentyl)methanesulfonamide], for which the EC50 stood at 21.6 nM in experiment [1]; 16.3 nM in [2]; 19.8 nM in [6]; 3.1 nM in [7]; 57 nM in [9] (setting [13]); 3.4 nM in [9] (setting [14]). The EC50 in experiment [9] (setting [15]) worked out at 3.4 nM; in [10] (setting [16]), 6 nM; in experiment [10] (setting [17]) it was 88 nM; in [10] (setting [18]), 6 nM; in experiment [10] (setting [19]) it was 6 nM; in experiment [11], 4.2 nM. For the same compound, in experiment [12], the EC50 turned out to be 89.1 nM. The “C316Y/1a Fold Resistance” value in [3] came out at 15 fold. Moreover, the IC50 in [4] was 3.5 nM; in [5], 53 nM; in experiment [8] it was 8 nM. For the same compound, the “Transient Replicon Fold Resistance C316Y/1a” value in experiment [12] turned out to be 21 fold.
